Measurements from ChEMBL document CHEMBL3046644, “Biological activity of tropolone” (Biol Pharm Bull, 2003).
≈ marks a conversion by molar mass, not a printed value.

Experiments:
Tyrophagus putrescentiae [1] = assay: Insecticidal activity against Tyrophagus putrescentiae assessed as mortality at 0.10 g/m'2 after 24 hr by clip method; format: functional
Coptotermes formosanus [2] = assay: Insecticidal activity against Coptotermes formosanus assessed as mortality at 0.025 g/m'2 after 48 hr; format: functional
Coptotermes formosanus [3] = assay: Insecticidal activity against Coptotermes formosanus assessed as mortality; format: functional
Dermatophagoides farinae [4] = assay: Insecticidal activity against Dermatophagoides farinae assessed as mortality at 0.05 g/m'2 after 24 hr by clip method; format: functional
Dermatophagoides farinae [5] = assay: Insecticidal activity against Dermatophagoides farinae assessed as mortality at 0.30 g/m'2 after 24 hr by clip method; format: functional
Tyrophagus putrescentiae [6] = assay: Insecticidal activity against Tyrophagus putrescentiae assessed as mortality at 0.50 g/m'2 after 24 hr by clip method; format: functional
Dermatophagoides farinae [7] = assay: Insecticidal activity against Dermatophagoides farinae assessed as mortality at 0.025 g/m'2 after 24 hr by clip method; format: functional
Colletotrichum lagenaria = assay: Antifungal activity against Colletotrichum lagenaria after 15 days by agar dilution method; format: functional; conditions: 360 h
Dermatophagoides farinae [8] = assay: Insecticidal activity against Dermatophagoides farinae assessed as mortality at 0.20 g/m'2 after 24 hr by clip method; format: functional
Phomopsis obscurans = assay: Antifungal activity against Phomopsis obscurans MAFF 744018 after 15 days by agar dilution method; format: functional; conditions: Paraphomopsis obscurans, MAFF 744018, 360 h
Tyrophagus putrescentiae [9] = assay: Insecticidal activity against Tyrophagus putrescentiae assessed as mortality at 0.40 g/m'2 after 24 hr by clip method; format: functional
Dermatophagoides farinae [10] = assay: Insecticidal activity against Dermatophagoides farinae assessed as mortality after 24 hr by clip method; format: functional
Carboxypeptidase A1 = biological target: T1, Carboxypeptidase A1 (Bos taurus, UniProt P00730); assay: Inhibition of Bos taurus (bovine) pancrease carboxypeptidase A after 15 min
T1 sequence (P00730 whole entry): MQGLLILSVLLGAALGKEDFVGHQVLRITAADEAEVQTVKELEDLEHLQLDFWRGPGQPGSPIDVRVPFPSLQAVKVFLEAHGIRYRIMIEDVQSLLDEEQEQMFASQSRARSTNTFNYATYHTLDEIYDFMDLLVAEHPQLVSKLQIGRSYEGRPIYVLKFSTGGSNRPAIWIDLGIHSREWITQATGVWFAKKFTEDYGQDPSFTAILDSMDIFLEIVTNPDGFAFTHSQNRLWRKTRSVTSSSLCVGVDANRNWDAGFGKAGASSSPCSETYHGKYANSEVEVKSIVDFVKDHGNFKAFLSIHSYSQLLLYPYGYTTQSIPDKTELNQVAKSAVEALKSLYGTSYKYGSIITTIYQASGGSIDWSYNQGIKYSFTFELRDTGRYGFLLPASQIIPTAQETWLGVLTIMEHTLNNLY

Tyrophagus putrescentiae [11] = assay: Insecticidal activity against Tyrophagus putrescentiae assessed as mortality after 24 hr by clip method; format: functional
Dermatophagoides farinae [12] = assay: Insecticidal activity against Dermatophagoides farinae assessed as mortality at 0.10 g/m'2 after 24 hr by clip method; format: functional
Tyrophagus putrescentiae [13] = assay: Insecticidal activity against Tyrophagus putrescentiae assessed as mortality at 0.20 g/m'2 after 24 hr by clip method; format: functional
Coptotermes formosanus [14] = assay: Insecticidal activity against Coptotermes formosanus assessed as mortality at 0.050 g/m'2 after 48 hr; format: functional
Fusarium solani = assay: Antifungal activity against Fusarium solani IFO 9955 after 15 days by agar dilution method; format: functional; conditions: IFO 9955, 360 h
Thanatephorus cucumeris = assay: Antifungal activity against Thanatephorus cucumeris IFO 30445 after 15 days by agar dilution method; format: functional; conditions: IFO 30445, 360 h
Coptotermes formosanus [15] = assay: Insecticidal activity against Coptotermes formosanus assessed as mortality at 0.200 g/m'2 after 24 hr; format: functional
Coptotermes formosanus [16] = assay: Insecticidal activity against Coptotermes formosanus assessed as mortality at 0.050 g/m'2 after 24 hr; format: functional
Coptotermes formosanus [17] = assay: Insecticidal activity against Coptotermes formosanus assessed as mortality at 0.200 g/m'2 after 48 hr; format: functional
Tyrophagus putrescentiae [18] = assay: Insecticidal activity against Tyrophagus putrescentiae assessed as mortality at 0.30 g/m'2 after 24 hr by clip method; format: functional
Thermolysin = biological target: T2, Thermolysin (Bacillus thermoproteolyticus, UniProt P00800); assay: Inhibition of Bacillus thermoproteolyticus thermolysin after 15 min
T2 sequence (P00800 whole entry): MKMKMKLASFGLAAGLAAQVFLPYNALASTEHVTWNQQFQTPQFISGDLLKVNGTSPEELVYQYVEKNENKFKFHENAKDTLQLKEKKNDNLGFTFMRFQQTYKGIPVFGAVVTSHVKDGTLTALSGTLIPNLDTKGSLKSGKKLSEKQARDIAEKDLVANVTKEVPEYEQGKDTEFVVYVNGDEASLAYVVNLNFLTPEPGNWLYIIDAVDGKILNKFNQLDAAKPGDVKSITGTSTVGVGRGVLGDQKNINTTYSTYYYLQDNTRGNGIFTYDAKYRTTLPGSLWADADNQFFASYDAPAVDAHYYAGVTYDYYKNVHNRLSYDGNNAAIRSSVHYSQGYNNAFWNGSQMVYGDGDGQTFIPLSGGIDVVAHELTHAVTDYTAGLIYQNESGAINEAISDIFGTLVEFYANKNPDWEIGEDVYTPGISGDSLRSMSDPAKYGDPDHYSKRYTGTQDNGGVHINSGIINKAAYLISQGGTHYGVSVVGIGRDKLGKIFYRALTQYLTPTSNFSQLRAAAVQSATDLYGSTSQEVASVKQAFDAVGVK

Coptotermes formosanus [19] = assay: Insecticidal activity against Coptotermes formosanus assessed as mortality at 0.100 g/m'2 after 24 hr; format: functional
Coptotermes formosanus [20] = assay: Insecticidal activity against Coptotermes formosanus assessed as mortality at 0.025 g/m'2 after 24 hr; format: functional
Botrytis cinerea = assay: Antifungal activity against Botryotinia fuckeliana IFO 30915 after 15 days by agar dilution method; format: functional; conditions: IFO 30915, 360 h
[21] = system: Colletotrichum orbiculare; assay: Antifungal activity against Colletotrichum orbiculare MAFF 306518 after 15 days by agar dilution method; format: functional; conditions: MAFF 306518, 360 h
Dermatophagoides farinae [22] = assay: Insecticidal activity against Dermatophagoides farinae assessed as mortality at 0.50 g/m'2 after 24 hr by clip method; format: functional
Dermatophagoides farinae [23] = assay: Insecticidal activity against Dermatophagoides farinae assessed as mortality at 0.40 g/m'2 after 24 hr by clip method; format: functional
Pythium aphanidermatum = assay: Antifungal activity against Pythium aphanidermatum IFO 32440 after 15 days by agar dilution method; format: functional; conditions: IFO 32440, 360 h
Collagenase ColG = biological target: T3, Collagenase ColG (Clostridium histolyticum, UniProt Q9X721); assay: Inhibition of Clostridium histolyticum collagenase after 15 min; parameters: species or system Hathewaya histolytica
T3 sequence (Q9X721 whole entry): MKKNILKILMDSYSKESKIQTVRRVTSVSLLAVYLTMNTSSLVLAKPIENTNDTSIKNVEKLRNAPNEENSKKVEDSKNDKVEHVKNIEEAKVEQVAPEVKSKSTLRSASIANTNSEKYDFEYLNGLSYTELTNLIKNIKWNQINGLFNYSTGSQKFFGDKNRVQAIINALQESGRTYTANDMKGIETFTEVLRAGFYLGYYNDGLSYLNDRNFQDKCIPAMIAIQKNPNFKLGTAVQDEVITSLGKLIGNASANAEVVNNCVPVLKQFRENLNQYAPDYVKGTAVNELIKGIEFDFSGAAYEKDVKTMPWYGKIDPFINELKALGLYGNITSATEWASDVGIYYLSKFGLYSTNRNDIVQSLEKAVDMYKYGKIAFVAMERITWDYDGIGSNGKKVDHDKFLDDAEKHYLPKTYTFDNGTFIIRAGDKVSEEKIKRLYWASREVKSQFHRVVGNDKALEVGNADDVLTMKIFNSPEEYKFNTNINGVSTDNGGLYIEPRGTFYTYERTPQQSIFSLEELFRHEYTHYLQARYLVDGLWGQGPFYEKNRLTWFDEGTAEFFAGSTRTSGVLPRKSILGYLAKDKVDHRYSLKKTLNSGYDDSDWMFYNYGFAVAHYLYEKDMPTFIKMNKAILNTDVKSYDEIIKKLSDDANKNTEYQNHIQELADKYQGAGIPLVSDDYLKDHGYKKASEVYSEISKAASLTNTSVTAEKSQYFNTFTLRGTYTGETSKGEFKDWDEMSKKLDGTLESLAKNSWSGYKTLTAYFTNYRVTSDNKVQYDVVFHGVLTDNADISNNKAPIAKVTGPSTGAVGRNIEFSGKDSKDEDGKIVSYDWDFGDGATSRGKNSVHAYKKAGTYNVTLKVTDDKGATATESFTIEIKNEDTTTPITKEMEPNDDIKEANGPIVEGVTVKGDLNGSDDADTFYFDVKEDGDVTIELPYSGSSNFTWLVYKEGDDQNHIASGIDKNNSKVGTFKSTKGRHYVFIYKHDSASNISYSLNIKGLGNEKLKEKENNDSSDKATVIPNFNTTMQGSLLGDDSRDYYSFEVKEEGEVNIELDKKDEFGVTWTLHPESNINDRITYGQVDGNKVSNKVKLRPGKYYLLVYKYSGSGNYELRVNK

Coptotermes formosanus [24] = assay: Insecticidal activity against Coptotermes formosanus assessed as mortality at 0.100 g/m'2 after 48 hr; format: functional
Tyrophagus putrescentiae [25] = assay: Insecticidal activity against Tyrophagus putrescentiae assessed as mortality at 1 g/m'2 after 24 hr by clip method; format: functional
Dermatophagoides farinae [26] = assay: Insecticidal activity against Dermatophagoides farinae assessed as mortality at 1 g/m'2 after 24 hr by clip method; format: functional

SMILES: CC(C)c1cccc(=O)c(O)c1 [HINOKITIOL]
- mortality (Tyrophagus putrescentiae [1]): 11.9%
- mortality (Coptotermes formosanus [2]): 20%
- LC50 (Coptotermes formosanus [3]): 0.08 g/m2
- mortality (Dermatophagoides farinae [4]): 18.8%
- mortality (Dermatophagoides farinae [5]): 100%
- mortality (Tyrophagus putrescentiae [6]): 91.3%
- mortality (Dermatophagoides farinae [7]): 7.8%
- MIC (Colletotrichum lagenaria): 25 µg/mL (≈ 152 µM)
- mortality (Dermatophagoides farinae [8]): 96.3%
- MIC (Phomopsis obscurans): 12 µg/mL (≈ 73.1 µM)
- mortality (Tyrophagus putrescentiae [9]): 77.5%
- LC50 (Dermatophagoides farinae [10]): 0.37 g/m2
- IC50 (Carboxypeptidase A1): 2.76 µM
- LC50 (Tyrophagus putrescentiae [11]): 0.24 g/m2
- mortality (Dermatophagoides farinae [12]): 45.2%
- mortality (Tyrophagus putrescentiae [13]): 33.6%
- mortality (Coptotermes formosanus [14]): 50%
- MIC (Fusarium solani): 50 µg/mL (≈ 304 µM)
- MIC (Thanatephorus cucumeris): 12 µg/mL (≈ 73.1 µM)
- mortality (Coptotermes formosanus [15]): 100%
- mortality (Coptotermes formosanus [16]): 40%
- mortality (Coptotermes formosanus [17]): 100%
- mortality (Tyrophagus putrescentiae [18]): 55.5%
- IC50 (Thermolysin): 61 µM
- mortality (Coptotermes formosanus [19]): 50%
- mortality (Coptotermes formosanus [20]): 10%
- MIC (Botrytis cinerea): 50 µg/mL (≈ 304 µM)
- MIC [21]: 25 µg/mL (≈ 152 µM)
- mortality (Dermatophagoides farinae [22]): 100%
- mortality (Dermatophagoides farinae [23]): 100%
- MIC (Pythium aphanidermatum): 12 µg/mL (≈ 73.1 µM)
- IC50 (Collagenase ColG): 24 µM
- mortality (Coptotermes formosanus [24]): 100%

SMILES: CCN(CC)C(=O)c1cccc(C)c1 [DIETHYLTOLUAMIDE]
- mortality (Tyrophagus putrescentiae [1]): 0%
- mortality (Tyrophagus putrescentiae [6]): 18.9%
- mortality (Dermatophagoides farinae [8]): 7.2%
- LC50 (Dermatophagoides farinae [10]): 0.79 g/m2
- LC50 (Tyrophagus putrescentiae [11]): 1.46 g/m2
- mortality (Dermatophagoides farinae [12]): 0%
- mortality (Tyrophagus putrescentiae [13]): 4.5%
- mortality (Tyrophagus putrescentiae [25]): 67.1%
- mortality (Dermatophagoides farinae [26]): 45.5%
- mortality (Dermatophagoides farinae [22]): 20.5%
